Test system: T1, Horseradish peroxidase (HRP)
T1 construct: gene PRXC1A; free enzyme
Experiment: colorimetric peroxidase assay, Lineweaver-Burk plot
Type: biochemical
Settings: free enzyme, not immobilised; co-substrate H2O2 (concentration not stated); pH and temperature not stated; read-out: Kmapp

Compound: CCN(CC)c1ccc(N)cc1 [DPD, N,N-diethyl-p-phenylenediaminesulfate]
- Km: 500 µM

Reference: publication PMC6271698, “Immobilization of Horseradish Peroxidase on NH2-Modified Magnetic Fe3O4/SiO2 Particles and Its Application in Removal of 2,4-Dichlorophenol” (Molecules, 2014)
